According to publication PMC11111691, “Cystine-knot peptide inhibitors of HTRA1 bind to a cryptic pocket within the active site region” (Nature Communications, 2024):
Positions of bridges follow the written chain, without caps; N, C: chain ends. Residues, ends and D or L forms follow the SMILES beside them.

Key:
HTRA1^PD(SA) = target: T1, HTRA1^PD(SA) (Homo sapiens, UniProt Q92743, S328A); test: SPR binding kinetics to HTRA1^PD(SA); settings: mean ± S.D. of three or more independent experiments
T1 construct: The protease domains of human HTRA1 (HTRA1^PD; D161-K379); made in house; host or cells: E. coli
Summary of the method: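 His-tagged HTRA1 protease domain S328A mutant captured on CM5 chip (~700 RU); six three-fold serial peptide dilutions in HBS-EP pH 7.4 injected 120 s at 30 μl/min, 25 °C, single-cycle kinetics. KD from kon/koff by 1:1 Langmuir fit, reference-subtracted; mean ± S.D. of 3–4 experiments.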

HTRA1^PD/PDZ = target: T2, HTRA1^PD/PDZ (Homo sapiens, UniProt Q92743); test: H2-OPT selectivity assay, HTRA1^PD/PDZ; format: biochemical; settings: 3 nM HTRA1^PD/PDZ, 2 µM CKP (0.5 mM 7mer-ABP), 5 µM H2-OPT
T2 construct: made in house; host or cells: E. coli
Method: Assays with the fluorescence-quenched synthetic substrate Mca-IRRVSYSFK(Dnp)K (H2-OPT)[38],[60] were carried out essentially as described. CKP stock solutions in DMSO were diluted in TNC buffer (dilution series for IC50 determinations, or final concentration of 2 µM for selectivity assay or as indicated for HTRA1/4 mutants) and incubated with enzymes in 96-well black optical bottom plates for 60 min at 37 °C. For selectivity experiments we used the 7mer-ABP as inhibitor, which was incubated with the proteases for 15 min at 37 °C. A 10 mM stock solution of H2-OPT in DMSO was diluted with water, prewarmed at 37 °C and then added to the CKP-enzyme mixtures. The final concentrations in the reaction mixtures were: 1 nM HTRA1^FL, 3 nM HTRA1^PD/PDZ, 1 nM HTRA1^PD, 1 nM HTRA2^PD/PDZ, 3 nM HTRA3^FL, 60 nM HTRA3^PD/PDZ, 6 nM HTRA4^FL, 1 µM HTRA4^PD/PDZ, 1 nM mouse HTRA1^PD, 25 nM HTRA1^PD-A202Y, 1 µM HTRA4^PD/PDZ-Y200A, 0.5 mM 7mer-ABP, 5 µM H2-OPT, and 0.25% DMSO. The kinetics of substrate cleavage was measured at 37 °C on a SpectraMax M5 microplate reader with excitation of 328 nm and emission of 393 nm. The determined initial rates of cleavage were expressed as percent of control (DMSO control) after subtracting the baseline rates (without enzyme). IC50 values were determined by Sigmoidal 4PL modeling of multiple data points from serial dilutions of CKPs using Prism 9 software (GraphPad). […]

[1] = SPR Biacore S200, 25 °C, single cycle kinetics, 1:1 Langmuir model

T1 sequence (Q92743 161-379 S328A): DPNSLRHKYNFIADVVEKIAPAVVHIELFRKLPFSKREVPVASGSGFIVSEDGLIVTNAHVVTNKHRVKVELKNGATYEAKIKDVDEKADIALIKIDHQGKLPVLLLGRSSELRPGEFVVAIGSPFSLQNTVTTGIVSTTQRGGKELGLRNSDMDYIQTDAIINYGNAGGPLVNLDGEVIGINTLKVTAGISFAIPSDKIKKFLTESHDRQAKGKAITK
T2 sequence (Q92743 161-480): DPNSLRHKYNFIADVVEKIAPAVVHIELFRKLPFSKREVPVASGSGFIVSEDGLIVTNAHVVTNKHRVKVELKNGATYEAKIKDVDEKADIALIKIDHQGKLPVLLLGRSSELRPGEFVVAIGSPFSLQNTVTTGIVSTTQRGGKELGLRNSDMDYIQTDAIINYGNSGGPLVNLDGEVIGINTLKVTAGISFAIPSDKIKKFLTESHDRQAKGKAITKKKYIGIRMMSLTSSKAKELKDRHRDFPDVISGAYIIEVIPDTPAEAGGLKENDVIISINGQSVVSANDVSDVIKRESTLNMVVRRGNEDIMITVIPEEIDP

Row | Inhibition of HTRA1^PD/PDZ, H2-OPT (% of control) (HTRA1^PD/PDZ) | Molecule | koff (HTRA1^PD(SA); [1]) | kon (HTRA1^PD(SA); [1]) | Kd (HTRA1^PD(SA); SPR, calculated from kon and koff, CPI up to 10 µM)
1 | – | CC[C@H](C)[C@H](NC(=O)[C@@H]1CCCN1C(=O)[C@H](CC(=O)O)NC(=O)[C@H](C)NC(=O)[C@@H](N)Cc1c[nH]cn1)C(=O)N[C@H]1CSSC[C@@H]2NC(=O)[C@H](Cc3ccccc3)NC(=O)[C@H](Cc3c[nH]c4ccccc34)NC(=O)[C@H](C)NC(=O)CNC(=O)[C@H](CO)NC(=O)[C@@H]3CSSC[C@@H](C(=O)NCC(=O)N4CCC[C@H]4C(=O)N[C@@H](Cc4ccc(O)cc4)C(=O)N[C@H](C(=O)NCC(N)=O)C(C)C)NC(=O)[C@H](CO)NC(=O)[C@H](Cc4c[nH]c5ccccc45)NC(=O)[C@H]([C@@H](C)O)NC(=O)[C@H](C)NC(=O)[C@H](Cc4ccc(O)cc4)NC(=O)[C@H](Cc4ccc(O)cc4)NC(=O)[C@H](CSSC[C@H](NC(=O)[C@@H]4CCCN4C(=O)[C@H](CCCCN)NC(=O)[C@H](CC(N)=O)NC1=O)C(=O)N[C@@H](CCCCN)C(=O)N[C@@H]([C@@H](C)O)C(=O)N[C@@H](Cc1c[nH]cn1)C(=O)N[C@@H](CC(=O)O)C(=O)N[C@@H](CC(=O)O)C(=O)N3)NC(=O)[C@H](C)NC(=O)[C@H](CCC(N)=O)NC2=O [3B3] (H-HADPICNKPCKTHDDCSGAWFCQACYYATWSCGPYVG-NH2; disulfide 6-22, 10-25, 16-32) | 3.8 ± 0.5 s-1 x10-4 | 1.1 ± 0.2 M-1 s-1 x104 | 0.034 µM
2 | significantly inhibited | DPMFKLV-phosphonate [7mer-ABP] | – | – | –
